{"source": "patent US6326395A", "about": "“Antifungal activity of dicationic molecules” (priority 1999, dated 2001)", "key": {"Candida albicans": {"system": "Candida albicans", "assay": "in vitro antifungal susceptibility testing (MIC, MFC; broth macrodilution), Tables 1-7", "type": "cell-based", "description": "(§1) The fungi that were employed included two reference strains, C. neoformans var. neoformans H99 and C. albicans A39 and the following clinical isolates: (1) two strains of fluconazole-resistant C. neoformans var. neoformans (135.95 and 114.96); (2) two strains of C. neoformans var. gattii (119.95 and 114.95); (3) two strains of fluconazole-resistant C. albicans (102.96 and 103.96); and (4) one strain each of Torulopsis glabrata (142.91), Candida parapsilosis (111.96), Candida krusei (132.91), C. tropicalis (110.96), Candida lusitaniae (111.92), Fusarium solani (152.89), Aspergillus fumigatus (168.95), and Aspergillus flavus (112.96). Antifungal susceptibility testing was performed using an RPMI-1640 medium (Sigma Chemical Co., St. Louis, Mo.) with glutamine, without sodium bicarbonate, and buffered at pH 7.0 with 0.165 M morpholine-propanesulfonic acid (MOPS).\n(§2) In vitro susceptibility testing in the form of Minimum Inhibitory Concentration (MIC) experiments were performed using the broth macrodilution method according to the recommendations of the National Committee for Clinical Laboratory Standards (see 1995 manual). The only difference compared to the standardized procedure was the choice of drug dilutions ranging from 100 to 0.09 μg/ml. Briefly, this procedure specifies an inoculum grown at 35° C. and adjusted to a concentration of 0.5-2.5×10^3 CFU/ml with an incubation of the test performed at 35° C. and reading at 48 hours for all yeasts except for C. neoformans which is interpreted at 72 hr.\n(§3) Minimum Fungicidal Concentration (MFC) experiments were adapted from a method by McGinnis (McGinnis, M. R., (1980) \"Susceptibility testing and bioassay procedure\", p. 431, Academic Press, Inc., New York). Briefly, 10 μl aliquots from tubes with growth inhibition were plated onto Sabouraud agar plates.\n(§4) The fungi that were employed included two quality control reference strains, C. neoformans var. neoformansH99 and C. albicans A39 and the following clinical isolates: (1) four strains of C. neoformans var. neoformans (167.95; 135.95; 114.96; and 133.95) of which three were fluconazole-resistant>64 μg/ml (135.95; 114.96; and 133.95); (2) two strains of C. neoformans var. gattii (119.95 and 114.95); (3) two strains of fluconazole-resistant>64 μg/ml C. albicans (102.96 and 103.96); and (4) one strain each of C. glabrata (142.91), Candida parapsilosis (111.96), Candida krusei (132.91), C. tropicalis (110.96), Candida lusitaniae (111.92), Fusarium solani (152.89), Aspergillus fumigatus (168.95), Rhizopus arrhizus (117.89), Paecilomyces lilacinus (137.90), and Aspergillus flavus (112.96). Antifungal susceptibility testing was performed using an RPMI-1640 medium (Sigma Chemical Co., St. Louis, Mo.) with glutamine, without sodium bicarbonate, and buffered at pH 7.0 with 0.165 M morpholinepropanesulfonic acid (MOPS).\nas §3, with “p.431,” for “p. 431,”"}, "Cryptococcus neoformans": {"system": "Cryptococcus neoformans", "assay": "in vitro antifungal susceptibility testing (MIC, MFC; broth macrodilution), Tables 1-7", "type": "cell-based", "description": "as §1, §2, §3, §4\nas §3, with “p.431,” for “p. 431,”"}, "C. parapsilosis 111.96": {"system": "C. parapsilosis 111.96", "assay": "antifungal susceptibility testing (MIC, MFC), extended spectrum", "type": "cell-based, Candida parapsilosis", "details": "Lodderomyces parapsilosis", "method": "Antifungal susceptibility testing for compounds set forth in Examples 1-20 is discussed hereinbelow. […]\nas §2, with “The only difference compared to the standardized procedure was the choice of drug dilutions ranging from 100 to 0.09 μg/ml.” left out\n(§5) Minimum Fungicidal Concentration (MFC) experiments were adapted from a method by McGinnis (McGinnis, M. R., (1980) \"Susceptibility testing and bioassay procedure\", p. 431, Academic Press, Inc., New York). […] The lowest drug concentration that yielded three or fewer yeasts colonies was recorded as the MFC. […]\nas §5, with “p.431,” for “p. 431,”, “3” for “three”"}, "[1]": {"system": "Cryptococcus neoformans H99", "assay": "antifungal susceptibility testing (MIC, MFC), extended spectrum", "type": "cell-based, C. neoformans var. neoformans", "details": "Cryptococcus neoformans H99", "description": "as §1, with “Antifungal susceptibility testing for compounds set forth in Examples 1-20 is discussed hereinbelow. The” for “The”\nas §2, with “The only difference compared to the standardized procedure was the choice of drug dilutions ranging from 100 to 0.09 μg/ml.” left out\nas §5\nas §5, with “p.431,” for “p. 431,”, “3” for “three”"}}, "note": "Structures can show the parent of a compound that is named as a salt."}
{"smiles": "CC(C)NC(=N)c1ccc2nc(-c3ccc4c(c3)Cc3cc(-c5nc6ccc(C(=N)NC(C)C)cc6[nH]5)ccc3-4)[nH]c2c1", "note": "[Compound 57, 2,7-Bis[2-(5-N-isopropylamidino)benzimidazoyl]fluorene hydrochloride]", "values": [{"measurement": "MIC", "setting": "Candida albicans; 35° C., reading at 48 hours, read-out: MIC80 (Minimum inhibitory concentration 80%)", "value": 0.78, "unit": "µg/mL"}, {"measurement": "MFC", "setting": "Candida albicans; three or fewer colonies, read-out: MFC (Minimum fungicidal concentration)", "value": 1.56, "unit": "µg/mL"}, {"measurement": "MIC", "setting": "Cryptococcus neoformans; 35° C., 72 hr, read-out: MIC80 (Minimum inhibitory concentration 80%)", "value": 0.78, "unit": "µg/mL"}, {"measurement": "MFC", "setting": "Cryptococcus neoformans; Tables 2-7, three or fewer colonies, read-out: MFC (Minimum fungicidal concentration)", "value": 0.78, "unit": "µg/mL"}, {"measurement": "MFC", "setting": "C. parapsilosis 111.96", "value": 0.78, "unit": "µg/mL"}, {"measurement": "MIC", "setting": "C. parapsilosis 111.96; 48 hours, read-out: MIC80", "value": 0.78, "unit": "µg/mL"}, {"measurement": "MFC", "setting": "[1]", "value": 0.78, "unit": "µg/mL"}, {"measurement": "MIC", "setting": "[1]; 72 hr, read-out: MIC80", "value": 0.78, "unit": "µg/mL"}]}
